Like-named read-outs stand apart in the source and are kept apart here.
Legend:
Cytochrome P450 2C9 = biological target: T1, Cytochrome P450 2C9 (Homo sapiens, UniProt P11712); assay: Cytochrome P450 inhibition (P450 BACULOSOMES, Vivid substrates); type: in vitro ADME; details: 10-point titration, duplicate; read-out: CYP Activity 2C9 IC50
T1 construct: purchased Invitrogen
Method: (§1) A number of ADME properties were determined for a representative disclosed compound, compound 3 (N-(3-(6-((3-morpholinophenyl)amino)-1H-pyrazolo[3,4-d]pyrimidin-4-yl)phenyl)acrylamide), which corresponds to compound 3 in Table I. Drug inhibition of cytochrome P450 enzymes is a common cause of drug-drug intereaction issues in the clinic. The compound was tested in assays for commonly screened Cytochrome P450s, specifically the 1A2, 2C9, 2C19, 2D6, and 3A4 isoforms. The IC50 determinations were performed in duplicate using 10-point titrations of test compound using Invitrogen P450 BACULOSOMES® reagents and Vivid® CyP450 Screening substrates.

Cytochrome P450 2C19 = biological target: T2, Cytochrome P450 2C19 (Homo sapiens, UniProt P33261); assay: as above; type: in vitro ADME; details: 10-point titration, duplicate; read-out: CYP Activity 2C19 IC50
T2 construct: purchased Invitrogen
Method: as §1

Cytochrome P450 1A2 = biological target: T3, Cytochrome P450 1A2 (Homo sapiens, UniProt P05177); assay: as above; type: in vitro ADME; details: 10-point titration, duplicate; read-out: CYP Activity 1A2 IC50
T3 construct: purchased Invitrogen
T3 sequence (P05177 1-516): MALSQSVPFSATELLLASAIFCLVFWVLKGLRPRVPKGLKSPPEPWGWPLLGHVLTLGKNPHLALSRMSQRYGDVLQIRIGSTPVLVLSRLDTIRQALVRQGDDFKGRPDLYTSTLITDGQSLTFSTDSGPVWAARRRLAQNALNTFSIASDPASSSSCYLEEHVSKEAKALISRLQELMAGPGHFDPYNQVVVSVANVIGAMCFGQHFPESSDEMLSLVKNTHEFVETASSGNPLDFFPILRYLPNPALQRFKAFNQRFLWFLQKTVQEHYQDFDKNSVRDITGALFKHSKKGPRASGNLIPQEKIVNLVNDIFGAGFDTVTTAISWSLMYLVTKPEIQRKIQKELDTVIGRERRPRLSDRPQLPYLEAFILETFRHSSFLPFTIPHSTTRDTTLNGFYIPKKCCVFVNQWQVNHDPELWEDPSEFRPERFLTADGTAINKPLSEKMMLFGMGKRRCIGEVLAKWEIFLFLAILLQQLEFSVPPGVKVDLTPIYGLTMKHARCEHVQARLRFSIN
Method: as §1

Cytochrome P450 3A4 = biological target: T4, Cytochrome P450 3A4 (Homo sapiens, UniProt P08684); assay: as above; type: in vitro ADME
T4 construct: purchased Invitrogen
Method: as §1

Cytochrome P450 2D6 = biological target: T5, Cytochrome P450 2D6 (Homo sapiens, UniProt P10635); assay: as above; type: in vitro ADME; details: 10-point titration, duplicate; read-out: CYP Activity 2D6 IC50
T5 construct: purchased Invitrogen
Method: as §1

BTK = BTK (Homo sapiens, UniProt Q06187); assay: BTK kinase assay: time resolved-FRET (HTRF) assay; type: biochemical; set-up: recombinant full-length human BTK kinase with a (His)6 tag; (His)6; purchased Invitrogen Corporation, Carlsbad, Calif; details: 10 nM BTK, 60 μM ATP, 1 μM substrate
Method: Activity of compounds was routinely confirmed using a secondary assay as described herein. The secondary assay was a time resolved-FRET kinase assay. Test compound are diluted to desired concentrations in kinase reaction buffer and briefly incubated with BTK kinase (as described above; Invitrogen). The reaction is initiated by the addition of ATP and enzyme substrate, HTRF® KinEASE™-TK Substrate-biotin (Cisbio US, Bedford, Mass.). The composition of the reaction (10 μl) was: 1% v/v DMSO, 10 nM BTK, 60 μM ATP, and 1 μM substrate. After incubation at room temperature for 60 min, the enzyme reaction is stopped by EDTA-containing buffer, which also contains europium-labeled (Eu^3+-Cryptate) anti-phosphotyrosine antibody (Cisbio) and Streptavidin-XL665 (Cisbio). The europium-labeled antibody generates a time-resolved FRET signal with the Stepavidin-XL665, which binds to the biotinylated TK substrate through the streptavidin conjugate when the substrate is phosphorylated. After one hour incubation at room temperature, fluoresence was measured with excitation of 320 nm and dual emission of 615 and 665 nm on an EnVision microplate reader. Signal is expressed in terms of a TR-FRET ratio (665:615).
IC50 values are determined using GraphPad Prism 5 software. The data were entered as an X-Y plot into the software as percent inhibition for each concentration of the drug. The concentration values of the drug were log transformed and the nonlinear regression was carried out using the “sigmoidal dose-response (variable slope)” option within the GraphPad software to model the data and calculate IC50 values. The IC50 values reported are the concentration of drug at which 50% inhibition was reached.
Activity (IC50) was determined in the BTK assays describe herein below, i.e. either the ADP generation assay and/or the time-resolved FRET assay, and the data are shown in Table III. The compound number corresponds to the compound numbers used in Table I. In the table below, “ADP Assay” refers to the assay which measures production of ADP resulting from use of ATP by the kinase; and “HTRF Assay” refers to the time resolved-FRET kinase assay described in the examples. Multiple values in a given column indicate the results of more than one assay for the given compound. Representative data of the type used to determine the IC50 values for the ADP assay in Table III are shown in FIG. 8 for compounds 3, 4, and 5.

Microsomal stability [1] = type: in vitro ADME, rat; details: for Compound Remaining: rat microsomes 0.5 mg protein/mL, 1 μM
Method: (§2) Data were also obtained for the stability of Compound 3 when incubated with a microsomal preparation. Drug metabolism can occur, at least in part, in cellular microsomes, and thus the assay assesses the stability of drug to metabolic modification. The concentration of compound 3 was 1 μM in the assay system and the indicated microsomes were present at 0.5 mg total protein per milliliter. The concentration of intact drug was determined at the indicated timepoints using a LC-MS/MS assay. The enzyme activity of the microsomes used in this study were assessed using a positive control, testosterone.

Microsomal stability [2] = type: in vitro ADME, human; details: for Compound Remaining: human microsomes 0.5 mg protein/mL, 1 μM
Method: as §2

T4 sequence (P08684 whole entry): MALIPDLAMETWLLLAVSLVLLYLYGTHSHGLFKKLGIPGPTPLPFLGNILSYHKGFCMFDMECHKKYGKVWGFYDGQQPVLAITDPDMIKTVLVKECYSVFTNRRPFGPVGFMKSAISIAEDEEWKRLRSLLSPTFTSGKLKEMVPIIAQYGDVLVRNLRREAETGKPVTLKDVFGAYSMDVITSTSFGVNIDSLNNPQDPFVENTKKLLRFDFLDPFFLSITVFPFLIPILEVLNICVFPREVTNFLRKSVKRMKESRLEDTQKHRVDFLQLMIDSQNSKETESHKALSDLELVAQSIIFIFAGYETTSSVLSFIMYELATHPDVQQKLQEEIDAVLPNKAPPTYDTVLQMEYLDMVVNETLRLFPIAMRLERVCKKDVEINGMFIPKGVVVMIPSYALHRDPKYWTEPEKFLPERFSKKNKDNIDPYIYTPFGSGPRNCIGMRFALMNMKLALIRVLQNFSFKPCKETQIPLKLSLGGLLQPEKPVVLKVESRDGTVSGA
T5 sequence (P10635 whole entry): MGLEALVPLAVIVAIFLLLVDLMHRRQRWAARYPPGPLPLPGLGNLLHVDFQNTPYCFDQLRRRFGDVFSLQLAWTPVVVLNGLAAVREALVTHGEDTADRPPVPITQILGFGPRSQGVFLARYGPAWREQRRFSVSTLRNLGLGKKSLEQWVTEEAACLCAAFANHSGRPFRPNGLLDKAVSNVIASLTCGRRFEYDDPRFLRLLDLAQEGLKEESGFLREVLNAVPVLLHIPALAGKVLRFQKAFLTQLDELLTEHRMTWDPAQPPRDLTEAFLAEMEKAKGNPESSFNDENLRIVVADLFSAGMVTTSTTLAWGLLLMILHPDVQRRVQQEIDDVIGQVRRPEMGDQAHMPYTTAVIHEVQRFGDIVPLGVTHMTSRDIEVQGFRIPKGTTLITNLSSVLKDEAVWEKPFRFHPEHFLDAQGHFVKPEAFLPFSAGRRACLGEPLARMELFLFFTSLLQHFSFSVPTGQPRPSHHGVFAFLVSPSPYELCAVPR
T2 sequence (P33261 whole entry): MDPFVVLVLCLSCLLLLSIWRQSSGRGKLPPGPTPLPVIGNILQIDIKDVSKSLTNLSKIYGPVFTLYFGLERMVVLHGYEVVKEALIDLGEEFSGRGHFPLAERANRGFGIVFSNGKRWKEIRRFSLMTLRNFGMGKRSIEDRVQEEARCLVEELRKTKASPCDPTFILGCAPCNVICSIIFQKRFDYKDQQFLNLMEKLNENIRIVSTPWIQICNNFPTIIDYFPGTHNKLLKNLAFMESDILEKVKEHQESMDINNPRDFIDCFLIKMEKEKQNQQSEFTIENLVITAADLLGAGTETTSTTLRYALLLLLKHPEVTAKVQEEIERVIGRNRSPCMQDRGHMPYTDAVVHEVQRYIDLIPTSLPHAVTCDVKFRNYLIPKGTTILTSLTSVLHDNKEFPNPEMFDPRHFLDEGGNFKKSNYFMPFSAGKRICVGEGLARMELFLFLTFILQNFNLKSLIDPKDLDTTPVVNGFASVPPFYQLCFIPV
T1 sequence (P11712 whole entry): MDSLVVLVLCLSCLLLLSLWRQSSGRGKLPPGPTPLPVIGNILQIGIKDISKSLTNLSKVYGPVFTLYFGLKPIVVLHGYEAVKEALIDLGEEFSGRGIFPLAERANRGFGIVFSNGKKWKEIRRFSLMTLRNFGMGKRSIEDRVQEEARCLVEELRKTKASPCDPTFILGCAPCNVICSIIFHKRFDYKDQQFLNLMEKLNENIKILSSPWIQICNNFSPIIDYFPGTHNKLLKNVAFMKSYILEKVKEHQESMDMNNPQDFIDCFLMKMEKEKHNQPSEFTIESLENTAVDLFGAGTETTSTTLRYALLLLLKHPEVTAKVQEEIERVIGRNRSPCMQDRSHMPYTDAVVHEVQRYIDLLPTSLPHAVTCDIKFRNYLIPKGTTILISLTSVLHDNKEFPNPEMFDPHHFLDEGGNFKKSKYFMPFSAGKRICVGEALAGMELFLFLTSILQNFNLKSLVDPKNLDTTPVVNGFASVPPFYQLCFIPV
BTK, sequence (Q06187 whole entry): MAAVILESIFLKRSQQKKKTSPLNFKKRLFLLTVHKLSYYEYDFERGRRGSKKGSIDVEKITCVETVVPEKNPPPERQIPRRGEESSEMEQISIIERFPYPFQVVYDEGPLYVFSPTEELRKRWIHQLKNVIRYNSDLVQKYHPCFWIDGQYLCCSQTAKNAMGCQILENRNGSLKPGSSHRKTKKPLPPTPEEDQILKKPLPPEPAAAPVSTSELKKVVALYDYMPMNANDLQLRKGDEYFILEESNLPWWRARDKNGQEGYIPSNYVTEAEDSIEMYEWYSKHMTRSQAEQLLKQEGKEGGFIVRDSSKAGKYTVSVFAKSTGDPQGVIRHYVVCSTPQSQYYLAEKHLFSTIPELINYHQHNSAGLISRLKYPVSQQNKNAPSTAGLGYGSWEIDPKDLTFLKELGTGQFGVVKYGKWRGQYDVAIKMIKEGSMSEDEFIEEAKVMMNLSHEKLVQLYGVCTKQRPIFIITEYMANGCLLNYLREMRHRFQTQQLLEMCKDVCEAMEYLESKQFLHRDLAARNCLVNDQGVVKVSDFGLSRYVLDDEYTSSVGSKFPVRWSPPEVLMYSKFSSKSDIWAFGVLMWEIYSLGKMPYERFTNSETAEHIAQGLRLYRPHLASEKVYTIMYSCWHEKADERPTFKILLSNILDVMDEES

IC50 (Cytochrome P450 2C9): 2170 nM
IC50 (Cytochrome P450 2C19): 2630 nM
IC50 (Cytochrome P450 1A2): ≥ 10 µM
IC50 (Cytochrome P450 3A4; BOMCC substrate, read-out: CYP Activity 3A4/BOMCC IC50): 670 nM
IC50 (Cytochrome P450 3A4; DBOMF substrate, read-out: CYP Activity 3A4/DBOMF IC50): 2050 nM
IC50 (Cytochrome P450 2D6): ≥ 10 µM
IC50 (BTK): 8 nM
half-life at 1 μM (Microsomal stability [1]; rat microsomes): 14 min
Compound Remaining (Microsomal stability [1]; 0 min): 100 % of initial amount
Compound Remaining (Microsomal stability [1]; 10 min): 55.2 % of initial amount
Compound Remaining (Microsomal stability [1]; 20 min): 33.6 % of initial amount
Compound Remaining (Microsomal stability [1]; 30 min): 20.5 % of initial amount
Compound Remaining (Microsomal stability [1]; 60 min): 5.13 % of initial amount
microsomal CLint at 1 μM (Microsomal stability [1]; rat microsomes, read-out: CLinit (intrinsic clearance)): 100 µL/min/mg
half-life at 1 μM (Microsomal stability [2]; human microsomes): 16 min
Compound Remaining (Microsomal stability [2]; 0 min): 100 % of initial amount
Compound Remaining (Microsomal stability [2]; 10 min): 61.1 % of initial amount
Compound Remaining (Microsomal stability [2]; 20 min): 36.0 % of initial amount
Compound Remaining (Microsomal stability [2]; 30 min): 20.4 % of initial amount
Compound Remaining (Microsomal stability [2]; 60 min): 7.89 % of initial amount
microsomal CLint at 1 μM (Microsomal stability [2]; human microsomes, read-out: CLinit (intrinsic clearance)): 85 µL/min/mg
SMILES: C=CC(=O)Nc1cccc(-c2nc(Nc3cccc(N4CCOCC4)c3)nc3[nH]ncc23)c1 [Compound 3, N-(3-(6-((3-morpholinophenyl)amino)-1H-pyrazolo[3,4-d]pyrimidin-4-yl)phenyl)acrylamide]
